Values joined by “and” are separate entries in the source; they are usually repeats but may differ in a detail not shown here. Equal entries are not always repeated.
Assays:
[1] = Ligand stability in PBS (radio-HPLC); type: physicochemical; settings: 37° C., over the time course of 2 h
Procedure: (§1) Ligand stability in human blood serum (n=2) and PBS (n=1) was determined for different time points (2 min, 30 min, 60 min, 120 min). Therefore, approx. 5 MBq of radioligand was added to 1 mL of fresh human serum or PBS and incubated at 37° C. At each given time point 100 μL of the mixture were transferred to a 1.5 mL Eppendorf tube containing 100 μL of acetonitrile. The vial was vortexed and centrifuged for 2 min at 14,000 rpm before 100 μL of the supernatant were diluted with 200 μL of water and injected into analytical radio-HPLC. The PBS solution was directly injected into the radio-HPLC. Ligand stability was determined by integrating the areas of the signals in the radio chromatogram in relation to the signal of the intact ligand.

[2] = Partition coefficient (log D), n-Octanol/PBS; type: physicochemical
Procedure: The vials were vortexed for 5 min at 1,500 rpm and then centrifuged for 5 min at 20,000 rcf (Eppendorf Centrifuge 5424).

[3] = tested on: human serum; experiment: Protein binding in fresh human serum (Sephadex MicroSpin G-50 columns); type: in vitro ADME; settings: 37° C.
Procedure: Protein binding was determined for different time points (2 min, 30 min, 60 min, 120 min) in triplicates using Sephadex MicroSpin G-50 columns (GE-Healthcare, Chicago, Illinois, USA). The columns were spun initially at 20,000 rcf for 1 min to remove the storage buffer. Then approx. 5 MBq of radioligand was added to 1 mL of fresh human serum and incubated at 37° C. At each given timepoint 25 μL of the mixture was loaded on to the column, which was then spun at 20,000 rcf for 1 min. The activity content on the column (free radioligand) and in the filtrate (protein bound fraction) was quantified in a γ-counter.

[4] = Biodistribution studies incl. blocking experiments; type: in vivo; settings: healthy BALB/c mice
Procedure: For biodistribution studies 6 week old female BALB/c mice (n=3) were injected with 0.1 nmol (100 μL, approx. 1 MBq) of labelled compound via the lateral tail vein and sacrificed after 10, 30, or 60 min by cervical dislocation. The mice were dissected, blood and organs (spleen, pancreas, stomach, intestine, liver, kidney, heart, lung, muscle, and bone) were weighed, and their activity measured in a γ-counter. For blocking experiments, mice were co-injected with 100 μL of a 277 mM Galactose/PBS solution. In case of [^68Ga]Ga-TRAP-GalNAc a 277 mM N-Acetylgalactose solution was used.

[5] = Ligand stability in human blood serum (radio-HPLC); type: in vitro ADME; settings: for Serum stability (% of intact ligand): 37° C.
Procedure: as §1

[6] = 30 min p.i., blocking with 277 mM galactose

O=C(CCP(=O)([O-])CN1CCN(CP(=O)([O-])CCC(=O)NCc2cn(CCOCCOCCO[C@@H]3O[C@H](CO)[C@H](O)[C@H](O)[C@H]3O)nn2)CCN(CP(=O)([O-])CCC(=O)NCc2cn(CCOCCOCCO[C@@H]3O[C@H](CO)[C@H](O)[C@H](O)[C@H]3O)nn2)CC1)NCc1cn(CCOCCOCCO[C@@H]2O[C@H](CO)[C@H](O)[C@H](O)[C@H]2O)nn1.[68Ga+3] [[^68Ga]Ga-TRAP-Galactan]
Stability in PBS (% intact tracer) [1]: > 99%
logD [2]: −4.26±0.08
Protein binding (%) ([3]; 2 min): 8.2±3.4%
Protein binding (%) ([3]; 30 min): 6.4 ± 1.8%
Protein binding (%) ([3]; 60 min): 12.0 ± 3.1%
Protein binding (%) ([3]; 120 min): 11.6±2.2%
Biodistribution Blood ([4]; 10 min p.i.): 3.66 ± 0.2 % ID/g
Biodistribution Femur ([4]; 10 min p.i.): 0.85 ± 0.33 % ID/g
Biodistribution Heart ([4]; 10 min p.i.): 1.28 ± 0.06 % ID/g
Biodistribution Intestine ([4]; 10 min p.i.): 1.24 ± 0.05 % ID/g
Biodistribution Kidneys ([4]; 10 min p.i.): 7.4±2.1 % ID/g and 7.39 ± 2.1 % ID/g
Biodistribution Liver ([4]; 10 min p.i.): 24.6±1.6 % ID/g
Biodistribution Lung ([4]; 10 min p.i.): 2.31 ± 0.17 % ID/g
Biodistribution Muscle ([4]; 10 min p.i.): 0.91 ± 0.08 % ID/g
Biodistribution Pancreas ([4]; 10 min p.i.): 0.87 ± 0.01 % ID/g
Biodistribution Spleen ([4]; 10 min p.i.): 0.84 ± 0.08 % ID/g
Biodistribution Stomach ([4]; 10 min p.i.): 1.22 ± 0.20 % ID/g
Biodistribution Blood ([4]; 30 min p.i.): 1.6 ± 0.11 % ID/g
Biodistribution Femur ([4]; 30 min p.i.): 0.32 ± 0.05 % ID/g
Biodistribution Heart ([4]; 30 min p.i.): 0.65 ± 0.08 % ID/g
Biodistribution Intestine ([4]; 30 min p.i.): 2.18 ± 0.10 % ID/g
Biodistribution Kidneys ([4]; 30 min p.i.): 4.33 ± 0.35 % ID/g
Biodistribution Liver ([4]; 30 min p.i.): 29.7±1.7 % ID/g
Biodistribution Lung ([4]; 30 min p.i.): 1.09 ± 0.03 % ID/g
Biodistribution Muscle ([4]; 30 min p.i.): 0.37 ± 0.02 % ID/g
Biodistribution Pancreas ([4]; 30 min p.i.): 0.53 ± 0.01 % ID/g
Biodistribution Spleen ([4]; 30 min p.i.): 0.42 ± 0.07 % ID/g
Biodistribution Stomach ([4]; 30 min p.i.): 1.00 ± 0.27 % ID/g
Biodistribution Blood [4, 6]: 1.35 ± 0.52 % ID/g
Biodistribution Femur [4, 6]: 0.27 ± 0.09 % ID/g
Biodistribution Heart [4, 6]: 0.44 ± 0.09 % ID/g
Biodistribution Intestine [4, 6]: 1.02 ± 0.18 % ID/g
Biodistribution Kidneys [4, 6]: 3.70 ± 0.53 % ID/g
Biodistribution Liver [4, 6]: 10.6 ± 1.4 % ID/g
Biodistribution Lung [4, 6]: 0.86 ± 0.14 % ID/g
Biodistribution Muscle [4, 6]: 0.30 ± 0.04 % ID/g
Biodistribution Pancreas [4, 6]: 0.37 ± 0.04 % ID/g
Biodistribution Spleen [4, 6]: 0.29 ± 0.03 % ID/g
Biodistribution Stomach [4, 6]: 0.49 ± 0.07 % ID/g
Biodistribution Blood ([4]; 60 min p.i.): 0.3±0.09 % ID/g
Biodistribution Femur ([4]; 60 min p.i.): 0.13 ± 0.03 % ID/g
Biodistribution Heart ([4]; 60 min p.i.): 0.16 ± 0.02 % ID/g
Biodistribution Intestine ([4]; 60 min p.i.): 2.8±0.2 % ID/g and 2.80 ± 0.24 % ID/g
Biodistribution Kidneys ([4]; 60 min p.i.): 1.72 ± 0.17 % ID/g
Biodistribution Liver ([4]; 60 min p.i.): 25.0 ± 1.1 % ID/g
Biodistribution Lung ([4]; 60 min p.i.): 0.32 ± 0.05 % ID/g
Biodistribution Muscle ([4]; 60 min p.i.): 0.15 ± 0.03 % ID/g
Biodistribution Pancreas ([4]; 60 min p.i.): 0.16 ± 0.02 % ID/g
Biodistribution Spleen ([4]; 60 min p.i.): 0.17 ± 0.07 % ID/g
Biodistribution Stomach ([4]; 60 min p.i.): 0.31 ± 0.21 % ID/g
Serum stability (% of intact ligand) ([5]; 2 min): 97.7 ± 0.3%
Serum stability (% of intact ligand) ([5]; 30 min): 97.6 ± 0.2%
Serum stability (% of intact ligand) ([5]; 60 min): 97.6 ± 0.1%
Serum stability (% of intact ligand) ([5]; 120 min): 97.9 ± 0.1%
Stability in human blood serum (% intact tracer) ([5]; over the time course of 2 h): > 98%

O=C(CCP(=O)([O-])CN1CCN(CP(=O)([O-])CCC(=O)NCc2cn(CCOCCOCCO[C@@H]3O[C@H](CO)[C@@H](O)[C@H](O)[C@H]3O)nn2)CCN(CP(=O)([O-])CCC(=O)NCc2cn(CCOCCOCCO[C@@H]3O[C@H](CO)[C@@H](O)[C@H](O)[C@H]3O)nn2)CC1)NCc1cn(CCOCCOCCO[C@@H]2O[C@H](CO)[C@@H](O)[C@H](O)[C@H]2O)nn1.[68Ga+3] [[^68Ga]Ga-TRAP-Gluco, reference compound]
logD [2]: −3.8 ± 0.08
Protein binding (%) ([3]; 30 min): 3.3 ± 2.0%
Biodistribution Blood ([4]; 10 min p.i.): 4.53 ± 0.52 % ID/g
Biodistribution Femur ([4]; 10 min p.i.): 0.86 ± 0.10 % ID/g
Biodistribution Intestine ([4]; 10 min p.i.): 1.10 ± 0.12 % ID/g
Biodistribution Kidneys ([4]; 10 min p.i.): 10.20 ± 1.23 % ID/g
Biodistribution Liver ([4]; 10 min p.i.): 1.06 ± 0.07 % ID/g
Biodistribution Lung ([4]; 10 min p.i.): 2.84 ± 0.13 % ID/g
Biodistribution Muscle ([4]; 10 min p.i.): 0.99 ± 0.10 % ID/g
Biodistribution Pancreas ([4]; 10 min p.i.): 1.03 ± 0.08 % ID/g
Biodistribution Spleen ([4]; 10 min p.i.): 0.94 ± 0.03 % ID/g
Biodistribution Stomach ([4]; 10 min p.i.): 1.59 ± 0.44 % ID/g
Biodistribution Blood ([4]; 30 min p.i.): 1.40 ± 0.50 % ID/g
Biodistribution Femur ([4]; 30 min p.i.): 0.15 ± 0.14 % ID/g
Biodistribution Heart ([4]; 30 min p.i.): 1.07 ± 0.34 % ID/g
Biodistribution Intestine ([4]; 30 min p.i.): 0.57 ± 0.20 % ID/g
Biodistribution Kidneys ([4]; 30 min p.i.): 3.95 ± 1.12 % ID/g
Biodistribution Liver ([4]; 30 min p.i.): 0.51 ± 0.17 % ID/g
Biodistribution Lung ([4]; 30 min p.i.): 0.32 ± 0.10 % ID/g
Biodistribution Muscle ([4]; 30 min p.i.): 0.35 ± 0.12 % ID/g
Biodistribution Pancreas ([4]; 30 min p.i.): 0.47 ± 0.18 % ID/g
Biodistribution Spleen ([4]; 30 min p.i.): 0.41 ± 0.13 % ID/g
Biodistribution Stomach ([4]; 30 min p.i.): 0.61 ± 0.19 % ID/g
Biodistribution Blood ([4]; 60 min p.i.): 0.16 ± 0.06 % ID/g
Biodistribution Femur ([4]; 60 min p.i.): 0.08 ± 0.03 % ID/g
Biodistribution Heart ([4]; 60 min p.i.): 0.08 ± 0.02 % ID/g
Biodistribution Intestine ([4]; 60 min p.i.): 0.14 ± 0.05 % ID/g
Biodistribution Kidneys ([4]; 60 min p.i.): 1.87 ± 0.33 % ID/g
Biodistribution Liver ([4]; 60 min p.i.): 0.15 ± 0.02 % ID/g
Biodistribution Lung ([4]; 60 min p.i.): 0.31 ± 0.03 % ID/g
Biodistribution Muscle ([4]; 60 min p.i.): 0.05 ± 0.01 % ID/g
Biodistribution Pancreas ([4]; 60 min p.i.): 0.09 ± 0.03 % ID/g
Biodistribution Spleen ([4]; 60 min p.i.): 0.11 ± 0.01 % ID/g
Biodistribution Stomach ([4]; 60 min p.i.): 0.09 ± 0.03 % ID/g
